Results published in the NIST ThermoML archive (doi:10.1021/je301301j).

Assay: xn = mol fraction of the nth substance listed
Settings: Liquid; for mass density: Vibrating tube method; for viscosity: Concentric cylinders viscometry

C=CCCCC [hex-1-ene] + CCCCO
Settings	mass density, 273.15 K [kg/m3]	mass density, 293.15 K [kg/m3]	mass density, 313.15 K [kg/m3]	mass density, 333.15 K [kg/m3]	viscosity, 293.15 K [mPa·s]	viscosity, 303.15 K [mPa·s]	viscosity, 313.15 K [mPa·s]
100 kPa, x1 = 0.1001	808.1	792.4	776.5	759.7	–	–	–
100 kPa, x1 = 0.3999	764.1	747	729.5	711.1	–	–	–
100 kPa, x1 = 0.5018	751.4	734	716	697.2	–	–	–
100 kPa, x1 = 0.5997	739	721.2	702.9	683.7	–	–	–
100 kPa, x1 = 0.9	700.4	681.8	662.7	642.8	–	–	–
100 kPa, x1 = 1	691.5	672.8	653.8	634	–	–	–
100 kPa, x2 = 0	–	–	–	–	0.28	0.257	0.236
100 kPa, x2 = 0.1001	–	–	–	–	0.316	0.283	0.255
100 kPa, x2 = 0.2	–	–	–	–	0.355	0.316	0.285
100 kPa, x2 = 0.3002	–	–	–	–	0.422	0.369	0.322
100 kPa, x2 = 0.3999	–	–	–	–	0.522	0.448	0.386
100 kPa, x2 = 0.5018	–	–	–	–	0.669	0.565	0.475
100 kPa, x2 = 0.5997	–	–	–	–	0.86	0.703	0.595
100 kPa, x2 = 0.7002	–	–	–	–	1.159	0.938	0.763
100 kPa, x2 = 0.7999	–	–	–	–	1.558	1.24	0.997
100 kPa, x2 = 0.9	–	–	–	–	2.125	1.667	1.327
1000 kPa, x1 = 0.1001	808.5	793.1	777.2	760.6	–	–	–
1000 kPa, x1 = 0.3999	764.6	747.7	730.4	712.2	–	–	–
1000 kPa, x1 = 0.5018	751.9	734.8	716.9	698.3	–	–	–
1000 kPa, x1 = 0.5997	739.5	722	703.9	684.9	–	–	–
1000 kPa, x1 = 0.9	701	682.7	663.9	644.1	–	–	–
1000 kPa, x1 = 1	692.1	673.8	654.9	635.4	–	–	–
2000 kPa, x1 = 0.1001	809.3	793.8	778.1	761.6	–	–	–
2000 kPa, x1 = 0.3999	765.4	748.6	731.4	713.4	–	–	–
2000 kPa, x1 = 0.5018	752.7	735.7	718	699.6	–	–	–
2000 kPa, x1 = 0.5997	740.4	723	705	686.3	–	–	–
2000 kPa, x1 = 0.9	701.9	683.8	665.1	645.6	–	–	–
2000 kPa, x1 = 1	693	674.9	656.2	636.9	–	–	–
5000 kPa, x1 = 0.1001	811.3	796.2	780.6	764.5	–	–	–
5000 kPa, x1 = 0.3999	767.7	751.2	734.3	716.8	–	–	–
5000 kPa, x1 = 0.5018	755.1	738.4	721.1	703.1	–	–	–
5000 kPa, x1 = 0.5997	742.8	725.8	708.2	690	–	–	–
5000 kPa, x1 = 0.9	704.6	686.9	668.7	649.9	–	–	–
5000 kPa, x1 = 1	695.8	678	659.9	641.3	–	–	–
10000 kPa, x1 = 0.1001	814.6	799.7	784.6	768.9	–	–	–
10000 kPa, x1 = 0.3999	771.4	755.3	739	722	–	–	–
10000 kPa, x1 = 0.5018	758.9	742.7	725.9	708.6	–	–	–
10000 kPa, x1 = 0.5997	746.7	730.2	713.2	695.7	–	–	–
10000 kPa, x1 = 0.9	708.8	691.7	674.2	656.3	–	–	–
10000 kPa, x1 = 1	700	682.9	665.5	647.8	–	–	–
15000 kPa, x1 = 0.1001	817.8	803.2	788.4	773.1	–	–	–
15000 kPa, x1 = 0.3999	774.9	759.2	743.3	727.1	–	–	–
15000 kPa, x1 = 0.5018	762.5	746.7	730.5	713.8	–	–	–
15000 kPa, x1 = 0.5997	750.4	734.4	718	701.1	–	–	–
15000 kPa, x1 = 0.9	712.8	696.2	679.5	662.2	–	–	–
15000 kPa, x1 = 1	704	687.5	670.8	653.9	–	–	–
20000 kPa, x1 = 0.1001	820.8	806.5	792.1	777.2	–	–	–
20000 kPa, x1 = 0.3999	778.2	762.9	747.5	731.6	–	–	–
20000 kPa, x1 = 0.5018	766	750.5	734.8	718.7	–	–	–
20000 kPa, x1 = 0.5997	754	738.3	722.4	706.1	–	–	–
20000 kPa, x1 = 0.9	716.5	700.4	684.2	667.8	–	–	–
20000 kPa, x1 = 1	707.8	691.8	675.7	659.5	–	–	–
30000 kPa, x1 = 0.1001	826.5	812.8	799	784.7	–	–	–
30000 kPa, x1 = 0.3999	784.4	769.9	755.2	740.3	–	–	–
30000 kPa, x1 = 0.5018	772.4	757.7	742.7	728.5	–	–	–
30000 kPa, x1 = 0.5997	760.6	745.7	730.6	715.4	–	–	–
30000 kPa, x1 = 0.9	723.6	708.3	693.1	677.7	–	–	–
30000 kPa, x1 = 1	715	699.8	684.6	669.5	–	–	–
40000 kPa, x1 = 0.1001	831.9	818.6	805.3	791.6	–	–	–
40000 kPa, x1 = 0.3999	790.2	776.3	762.2	748	–	–	–
40000 kPa, x1 = 0.5018	778.4	764.2	749.9	736.5	–	–	–
40000 kPa, x1 = 0.5997	766.8	752.4	738	723.5	–	–	–
40000 kPa, x1 = 0.9	730.1	715.5	700.9	686.5	–	–	–
40000 kPa, x1 = 1	721.6	707	692.6	678.4	–	–	–
50000 kPa, x1 = 0.1001	837	824.1	811.1	798	–	–	–
50000 kPa, x1 = 0.3999	795.7	782.2	768.7	755.2	–	–	–
50000 kPa, x1 = 0.5018	783.9	770.2	756.5	743.8	–	–	–
50000 kPa, x1 = 0.5997	772.3	758.6	744.7	731	–	–	–
50000 kPa, x1 = 0.9	736.1	722.1	708.2	694.4	–	–	–
50000 kPa, x1 = 1	727.6	713.7	699.9	686.3	–	–	–
60000 kPa, x1 = 1	733.2	719.9	706.9	693.7	–	–	–
70000 kPa, x1 = 1	738.7	725.8	713	700.5	–	–	–
